In publication PMC7181131, “N-Pyrazinoyl Substituted Amino Acids as Potential Antimycobacterial Agents—the Synthesis and Biological Evaluation of Enantiomers” (Molecules, 2020):
Converted amounts (≈) assume the structure as drawn. Read-outs that look alike come from different tables or passages of the source.

Tests used:
[1] = test system: Staphylococcus epidermidis CCM 4418 (ATCC 12228); test: Antibacterial microdilution broth method, SE; assay type: cell-based; conditions: 24 h
[2] = test system: Klebsiella pneumoniae CCM 4415 (ATCC 10031); test: Antibacterial microdilution broth method, KP; conditions: for MIC: Klebsiella pneumoniae; for MIC KP: read after 24 h of incubation
[3] = test system: Mtb H37Ra ITM-M006710 (ATCC 9431); test: Microplate Alamar Blue Assay (MABA) microdilution, Mtb H37Ra; assay type: cell-based, Mycobacterium tuberculosis; conditions: for MIC: Mycobacterium tuberculosis
[4] = test system: M. smegmatis DSM 43465 (ATCC 607); test: Microplate Alamar Blue Assay (MABA) microdilution, M. smegmatis; assay type: cell-based, Mycobacterium smegmatis
[5] = test system: Mycobacterium aurum DSM 43999 (ATCC 23366); test: Microplate Alamar Blue Assay (MABA) microdilution, M. aurum; assay type: cell-based
[6] = test system: Candida albicans CCM 8320 (ATCC 24433); test: Antifungal microdilution broth method, CA; assay type: cell-based
[7] = test system: Candida krusei CCM 8271 (ATCC 6258); test: Antifungal microdilution broth method, CK; assay type: cell-based; conditions: Pichia kudriavzevii
[8] = test system: Candida parapsilosis CCM 8260 (ATCC 22019); test: Antifungal microdilution broth method, CP; assay type: cell-based; conditions: Lodderomyces parapsilosis
[9] = test system: Candida tropicalis CCM 8264 (ATCC 750); test: Antifungal microdilution broth method, CT; assay type: cell-based
[10] = test system: Aspergillus fumigatus ATCC 204305; test: Antifungal microdilution broth method, AF; assay type: cell-based
[11] = test system: Aspergillus flavus CCM 8363; test: Antifungal microdilution broth method, AFla; assay type: cell-based
Description: 6. In vitro antifungal activity screening
Antifungal activity evaluation was performed using a microdilution broth method according to EUCAST instructions (The European Committee on Antimicrobial Susceptibility Testing) with slight modifications. Eight fungal strains (four yeast and four mould strains) were used for antifungal […]
and Trichophyton interdigitale CCM 8377 (ATCC 9533). Tested strains were purchased from the Czech Collection of Microorganisms (CCM, Brno, Czech Republic) or from the American Type Collection Cultures (ATCC, Manassas, VA, USA). Tested compounds were dissolved in DMSO and diluted in a twofold manner with RPMI 1640 medium, with glutamine and 2% glucose, buffered to pH 7.0 with MOPS (3-morpholinopropane-1-sulfonic acid). The final concentration of DMSO in the testing […]
Static incubation was performed in the dark and in humid atmosphere, at 35±2 °C, for 24 and 48 h (72 and 120 h for Trichophyton interdigitale respectively). Positive controls consisted of test microbe solely, while negative controls consisted of cultivation medium and DMSO. Visual inspection and metabolic activity indicator, Alamar Blue (ThermoFisher Scientific), were used for MIC endpoint evaluation. The internal quality standards, amphotericin B (Sigma-Aldrich) and voriconazole (Toronto research Chemicals, CA) were involved in assays (for MIC of standards see Table S5). All experiments were conducted in duplicates.
For the results to be valid, the difference in MIC for one compound determined from two parallel measurements must not be greater than one step on the dilution scale.

[12] = test system: Lichtheimia corymbifera CCM 8077; test: Antifungal microdilution broth method, LC; assay type: cell-based
[13] = test system: Trichophyton interdigitale CCM 8377 (ATCC 9533); test: Antifungal microdilution broth method, TI; assay type: cell-based
[14] = pH 6.6, read-out: MIC Mtb H37Ra
[15] = pH 6, calculated from µg/mL, read-out: MIC Mtb H37Ra
[16] = Mycolicibacterium smegmatis, pH 6, read-out: MIC M. smegmatis µg/mL
[17] = Mycolicibacterium smegmatis, pH 6.6, read-out: MIC M. smegmatis
[18] = Mycolicibacterium aurum, pH 6, read-out: MIC M. aurum µg/mL
[19] = Mycolicibacterium aurum, pH 6.6, read-out: MIC M. aurum
[20] = ATCC204305, 48 h, read-out: MIC AF
[21] = CCM8363, read after 48 h (filamentous fungi), read-out: MIC AFla
[22] = CCM8077, 48 h, read-out: MIC LC
[23] = Mycolicibacterium smegmatis, pH 6; read-out: MIC M. smegmatis
[24] = Mycolicibacterium smegmatis, pH 6.6; read-out: MIC M. smegmatis
[25] = Mycolicibacterium aurum, pH 6; read-out: MIC M. aurum
[26] = Mycolicibacterium aurum, pH 6.6; read-out: MIC M. aurum
[27] = internal quality control, 530 nm, inhibition of growth of 90%, 24 h (yeasts), read-out: MIC, spectrophotometric detection
[28] = internal quality control, naked eye, no visible growth, 24 h (yeasts), read-out: MIC, visual detection
[29] = ATCC204305, internal quality control, naked eye, no visible growth, 48 h (moulds), read-out: MIC, visual detection
[30] = CCM8363, internal quality control, naked eye, no visible growth, 48 h (moulds), read-out: MIC, visual detection
[31] = CCM8077, internal quality control, naked eye, no visible growth, 48 h (moulds), read-out: MIC, visual detection
[32] = internal quality control, naked eye, no visible growth, 48 h (moulds), read-out: MIC, visual detection
[33] = 24 h, read-out: MIC, spectrophotometric detection

SMILES	MIC ([3]; pH 6)	MIC ([3]; pH 6, read-out: MIC Mtb H37Ra)	MIC [3, 14]	MIC [3, 15]	MIC [4, 16]	MIC [4, 17]	MIC [5, 18]	MIC [5, 19]	MIC ([1]; read-out: MIC SE)	MIC ([6]; 24 h, read-out: MIC CA)	MIC ([7]; 24 h, read-out: MIC CK)	MIC ([8]; 24 h, read-out: MIC CP)	MIC ([9]; 24 h, read-out: MIC CT)	MIC [10, 20]	MIC [11, 21]	MIC [12, 22]	MIC ([13]; 48 h, read-out: MIC TI)	MIC KP [2]	other results
CNC(C)C1CCC(N)C(OC2C(N)CC(N)C(OC3OCC(C)(O)C(NC)C3O)C2O)O1 (stereo not drawn) [gentamicin, reference compound]	–	–	–	–	–	–	–	–	–	–	–	–	–	–	–	–	–	–	MIC ([1]; internal quality control, 530 nm, inhibition of growth of 95%, read-out: MIC, spectrophotometric detection): 0.125 µg/mL; MIC ([1]; internal quality control, naked eye, no visible growth, read-out: MIC, visual detection): 0.125 µg/mL; MIC ([2]; 24 h, read-out: MIC, visual detection): 0.5 µg/mL (≈ 1.05 µM); MIC ([2]; ATCC10031|CCM4415, 24 h, read-out: MIC, spectrophotometric detection): 0.5 µg/mL (≈ 1.05 µM)
O=C(N[C@@H](COCc1ccccc1)C(=O)O)c1cnccn1 [PC-L-OBn-Ser, O-benzyl-N-(pyrazine-2-carbonyl)-L-serine]	≥ 500 µg/mL	≥ 500 µg/mL	≥ 500 µg/mL	≥ 1660 µM	250 µg/mL (≈ 830 µM)	≥ 500 µg/mL	62.5 µg/mL (≈ 207 µM)	≥ 500 µg/mL	> 500 µM	> 500 µM	> 500 µM	> 500 µM	> 500 µM	> 500 µM	> 500 µM	> 500 µM	> 500 µM	> 500 µM	–
COC(=O)[C@H](NC(=O)c1cnccn1)C(C)C [PC-D-Val-Me, methyl (pyrazine-2-carbonyl)-D-valinate]	≥ 125 µg/mL	≥ 125 µg/mL	≥ 500 µg/mL	≥ 527 µM	≥ 125 µg/mL	≥ 500 µg/mL	≥ 125 µg/mL	≥ 500 µg/mL	> 500 µM	> 500 µM	> 500 µM	> 500 µM	> 500 µM	> 500 µM	> 500 µM	> 500 µM	> 500 µM	> 500 µM	–
COC(=O)[C@H](NC(=O)c1cnccn1)[C@H](C)O [PC-D-Thr-Me, methyl (pyrazine-2-carbonyl)-D-threoninate]	≥ 500 µg/mL	≥ 500 µg/mL	≥ 500 µg/mL	≥ 2090 µM	≥ 500 µg/mL	≥ 500 µg/mL	≥ 500 µg/mL	≥ 500 µg/mL	> 500 µM	> 500 µM	> 500 µM	> 500 µM	> 500 µM	> 500 µM	> 500 µM	> 500 µM	> 500 µM	> 500 µM	–
COC(=O)[C@H](CO)NC(=O)c1cnccn1 [PC-L-Ser-Me, methyl (pyrazine-2-carbonyl)-L-serinate]	≥ 500 µg/mL	≥ 500 µg/mL	≥ 500 µg/mL	≥ 2220 µM	≥ 500 µg/mL	≥ 500 µg/mL	≥ 500 µg/mL	≥ 500 µg/mL	> 500 µM	> 500 µM	> 500 µM	> 500 µM	> 500 µM	> 500 µM	> 500 µM	> 500 µM	> 500 µM	> 500 µM	–
COC(=O)C(CC(C)C)NC(=O)c1cnc(Cl)cn1 (stereo not drawn)	–	–	–	–	–	–	–	–	–	–	–	–	–	–	–	–	–	–	MIC Mtb H37Ra ([3]; pH 6): 3.91 µg/mL (≈ 13.7 µM); MIC Mtb H37Ra ([3]; pH 6.6): 62.5 µg/mL (≈ 219 µM)
O=C(O)c1cn(C2CC2)c2cc(N3CCNCC3)c(F)cc2c1=O [CPX, ciprofloxacin, reference compound]	–	0.25 µg/mL	0.125 to 0.25 µg/mL	0.75 µM	–	–	–	–	–	–	–	–	–	–	–	–	–	–	MIC [4, 23]: 0.0625 to 0.25 µg/mL (≈ 0.189 to 0.754 µM); MIC [4, 24]: 0.0625 to 0.125 µg/mL (≈ 0.189 to 0.377 µM); MIC [5, 25]: 0.0625 µg/mL (≈ 0.189 µM); MIC [5, 26]: 0.0078 to 0.0156 µg/mL (≈ 0.0235 to 0.0471 µM)
C[C@@H]1[C@H](O)[C@@H](C)/C=C/C=C/C=C/C=C/C=C/C=C/C=C/[C@H](O[C@@H]2O[C@H](C)[C@@H](O)[C@H](N)[C@@H]2O)C[C@@H]2O[C@](O)(C[C@@H](O)C[C@@H](O)[C@H](O)CC[C@@H](O)C[C@@H](O)CC(=O)O[C@H]1C)C[C@H](O)[C@H]2C(=O)O [amphotericin B, reference compound]	–	–	–	–	–	–	–	–	–	–	–	–	–	–	–	–	–	–	MIC [6, 27]: 0.5 µg/mL; MIC [6, 28]: 0.5 µg/mL; MIC [7, 27]: 0.5 µg/mL; MIC [7, 28]: 0.5 µg/mL; MIC [8, 27]: 0.5 µg/mL; MIC [8, 28]: 0.5 µg/mL; MIC [9, 27]: 1 µg/mL; MIC [9, 28]: 1 µg/mL; MIC ([10]; ATCC204305, internal quality control, 530 nm, inhibition of growth of 90%, 48 h (moulds), read-out: MIC, spectrophotometric detection): 1 µg/mL; MIC [10, 29]: 1 µg/mL; MIC ([11]; CCM8363, internal quality control, 530 nm, inhibition of growth of 90%, 48 h (moulds), read-out: MIC, spectrophotometric detection): 4 µg/mL; MIC [11, 30]: 4 µg/mL; MIC ([12]; CCM8077, internal quality control, 530 nm, inhibition of growth of 90%, 48 h (moulds), read-out: MIC, spectrophotometric detection): 0.125 µg/mL; MIC [12, 31]: 0.125 µg/mL; MIC ([13]; internal quality control, 530 nm, inhibition of growth of 90%, 48 h (moulds), read-out: MIC, spectrophotometric detection): 1 µg/mL; MIC [13, 32]: 1 µg/mL
CO[C@H]1/C=C/O[C@@]2(C)Oc3c(C)c(O)c4c(O)c(c(/C=N/N5CCN(C)CC5)c(O)c4c3C2=O)NC(=O)/C(C)=C\C=C\[C@H](C)[C@H](O)[C@@H](C)[C@@H](O)[C@@H](C)[C@H](OC(C)=O)[C@@H]1C [RIF, rifampicin, reference compound]	–	0.0016 to 0.0062 µg/mL	0.0039 to 0.0078 µg/mL	0.0019 to 0.0075 µM	–	–	–	–	–	–	–	–	–	–	–	–	–	–	MIC [4, 23]: 6.25 to 12.5 µg/mL (≈ 7.59 to 15.2 µM); MIC [4, 24]: 12.5 to 25 µg/mL (≈ 15.2 to 30.4 µM); MIC [5, 25]: 0.39 to 1.56 µg/mL (≈ 0.474 to 1.9 µM); MIC [5, 26]: 0.39 to 0.78 µg/mL (≈ 0.474 to 0.948 µM)
O=C(N[C@@H](CSCc1ccccc1)C(=O)O)c1cnccn1 [PC-L-SBn-Cys, S-benzyL-N-(pyrazine-2-carbonyl)-L-cysteine]	62.5 µg/mL	62.5 µg/mL	≥ 250 µg/mL	197 µM	≥ 250 µg/mL	≥ 250 µg/mL	125 µg/mL (≈ 394 µM)	≥ 250 µg/mL	250 µM	> 250 µM	> 250 µM	> 250 µM	> 250 µM	> 250 µM	> 250 µM	> 250 µM	> 250 µM	–	–
C[C@@H](c1ncncc1F)[C@](O)(Cn1cncn1)c1ccc(F)cc1F [voriconazole, reference compound]	–	–	–	–	–	–	–	–	–	–	–	–	–	–	–	–	–	–	MIC [6, 33]: 0.03 µg/mL; MIC [6, 28]: > 16 µg/mL; MIC [7, 33]: 0.25 µg/mL; MIC [7, 28]: > 16 µg/mL; MIC [8, 33]: 0.03 µg/mL; MIC [8, 28]: > 16 µg/mL; MIC [9, 33]: 0.0625 µg/mL; MIC [9, 28]: > 16 µg/mL; MIC ([10]; ATCC204305, 48 h, read-out: MIC, spectrophotometric detection): 0.25 µg/mL; MIC [10, 29]: 1 µg/mL; MIC ([11]; CCM8363, 48 h, read-out: MIC, spectrophotometric detection): 1 µg/mL; MIC [11, 30]: > 16 µg/mL; MIC ([12]; CCM8077, 48 h, read-out: MIC, spectrophotometric detection): > 16 µg/mL; MIC [12, 31]: > 16 µg/mL; MIC ([13]; 48 h, read-out: MIC, spectrophotometric detection): > 16 µg/mL; MIC [13, 32]: > 16 µg/mL
